Assay results taken from PubChem BioAssay (NCI).
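Following 48 hours of exposure in 96-well plates, responses at five concentrations were used to interpolate endpoints linearly. The concentration for 50% growth inhibition is given as GI50. At the TGI there is no net growth.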

What was measured:
Assay in all cases: NCI anticancer screen, dose series, 48 h
NCI-H23 lung = tested on: NCI-H23 lung
SF-539 CNS = tested on: SF-539 CNS
COLO 205 colon = tested on: COLO 205 colon
HCT-15 colon = tested on: HCT-15 colon
KM12 colon = tested on: KM12 colon
SW-620 colon = tested on: SW-620 colon
RXF 393 renal = tested on: RXF 393 renal
HOP-92 NSCLC = tested on: HOP-92 NSCLC
SK-OV-3 ovarian = tested on: SK-OV-3 ovarian
MDA-MB-435 = tested on: MDA-MB-435

| SMILES | TGI (NCI-H23 lung) | TGI (SF-539 CNS) | TGI (COLO 205 colon) | TGI (HCT-15 colon) | TGI (KM12 colon) | TGI (SW-620 colon) | TGI (RXF 393 renal) | TGI (HOP-92 NSCLC) | TGI (SK-OV-3 ovarian) | GI50 (NCI-H23 lung) | GI50 (SF-539 CNS) | GI50 (COLO 205 colon) | GI50 (HCT-15 colon) | GI50 (HOP-92 NSCLC) | GI50 (KM12 colon) | GI50 (SK-OV-3 ovarian) | GI50 (SW-620 colon) | GI50 (RXF 393 renal) | TGI (MDA-MB-435) |
| --- | --- | --- | --- | --- | --- | --- | --- | --- | --- | --- | --- | --- | --- | --- | --- | --- | --- | --- | --- |
| COC(=O)c1cc(C)c(C)c2c1NC(=O)CNC2=O | > 100 µM | > 100 µM | > 100 µM | > 100 µM | > 100 µM | > 100 µM | > 100 µM |  |  |  |  |  |  |  |  |  |  |  |  |
| Fc1ccc(C2SCc3nc4ccccc4n32)cc1Cl (configuration not stated) | 58.1 µM | 43.8 µM | 28.6 µM |  | 39.8 µM | > 100 µM | 50 µM | 30.1 µM | 49.5 µM |  |  |  |  |  |  |  |  |  |  |
| CCCCCCC(=O)C/C(=N/NC(N)=S)C(=O)NC1C2CC3CC(C2)CC1C3 (configuration not stated) | > 100 µM |  | > 100 µM |  | > 100 µM | > 100 µM | > 100 µM | > 100 µM |  |  |  |  |  |  |  |  |  |  |  |
| Cc1ccc(NC(=O)c2sc3nc(C)c(C(O)c4ccccc4)cc3c2N)cc1 (configuration not stated) | > 100 µM | 1.3 µM | > 21.8 µM | > 73 µM | > 61.9 µM | 52.7 µM | 3.29 µM | 20.4 µM | 30.6 µM | 0.722 µM | 0.287 µM | 0.573 µM | 0.397 µM | 0.857 µM | 0.452 µM | 0.768 µM | 0.355 µM | 0.333 µM |  |
| Cc1ccc(-c2cc(=O)c3cc(C)c(C)c(C(=O)O)c3o2)cc1C | > 100 µM | > 100 µM | > 100 µM | > 100 µM | > 100 µM | > 100 µM | > 100 µM | > 100 µM | > 100 µM |  |  |  |  |  |  |  |  |  |  |
| Cc1nc2ccccc2c(=O)n1-c1ccccc1F | > 100 µM | > 100 µM | > 100 µM | > 100 µM | > 100 µM | > 100 µM | > 100 µM | > 100 µM | > 100 µM |  |  |  |  |  |  |  |  |  |  |
| CCCCOC(=O)NC(=O)c1cn(C2CCCCC2)c(=O)[nH]c1=O | > 100 µM | 37.9 µM | > 100 µM | > 100 µM | > 100 µM | > 100 µM |  | 55.1 µM | 41.4 µM |  |  |  |  |  |  |  |  |  |  |
| C/C(=C1/CCC/C(=C(/C)c2ccccc2)C1=O)c1ccccc1 | > 100 µM | > 100 µM | > 100 µM | > 100 µM | > 100 µM | > 100 µM | 47.6 µM | > 100 µM | > 100 µM |  |  |  |  |  |  |  |  |  |  |
| CC(C)N1CN(C(C(=O)N[C@@H]2C(=O)N3C2SC(C)(C)C3C(=O)O)c2ccccc2)CSC1=S (some centres not stated) | > 100 µM | > 100 µM | > 100 µM | > 100 µM | > 100 µM |  |  | > 100 µM | > 100 µM |  |  |  |  |  |  |  |  |  |  |
| CN1C(=O)c2ccccc2NC(=O)C12O[C@@H]2c1cccc(O)c1 (some centres not stated) | > 100 µM | > 100 µM | > 100 µM | > 100 µM | > 100 µM | > 100 µM |  | > 100 µM |  |  |  |  |  |  |  |  |  |  | > 100 µM |
| C/C=C(\C)CC/C=C/CO[Si](C)(C)C(C)(C)C | > 100 µM | > 100 µM | > 100 µM | > 100 µM | > 100 µM | > 100 µM | > 100 µM |  | > 100 µM |  |  |  |  |  |  |  |  |  | > 100 µM |
| O=C(Nc1ccc(Cl)cc1Cl)C(=O)C(C(=O)c1ccncc1)C1OC(=O)c2ccccc21 (configuration not stated) | > 100 µM | > 100 µM | > 100 µM | > 100 µM | > 100 µM | > 100 µM | > 100 µM | > 100 µM | > 100 µM |  |  |  |  |  |  |  |  |  |  |
